Earlier results in patent US20240238317A1, “METHODS FOR REDUCING INTRAOCULAR PRESSURE” (UNIVERSITY OF MISSISSIPPI, priority 2021, published 2024).

Tested on: IOP
Conditions: topical application; cited from earlier work

**Q.** For `CCCCCc1cc(O)c2c(c1)OC(C)(C)[C@@H]1CCC(C)=C[C@@H]21` [THC, Delta-9-tetrahydrocannabinol], which “effect on IOP” value is on record?
**A.** Its value is “no effect on IOP”.
